pKi: −log10 of the molar value.

T1 sequence (P21554 whole entry): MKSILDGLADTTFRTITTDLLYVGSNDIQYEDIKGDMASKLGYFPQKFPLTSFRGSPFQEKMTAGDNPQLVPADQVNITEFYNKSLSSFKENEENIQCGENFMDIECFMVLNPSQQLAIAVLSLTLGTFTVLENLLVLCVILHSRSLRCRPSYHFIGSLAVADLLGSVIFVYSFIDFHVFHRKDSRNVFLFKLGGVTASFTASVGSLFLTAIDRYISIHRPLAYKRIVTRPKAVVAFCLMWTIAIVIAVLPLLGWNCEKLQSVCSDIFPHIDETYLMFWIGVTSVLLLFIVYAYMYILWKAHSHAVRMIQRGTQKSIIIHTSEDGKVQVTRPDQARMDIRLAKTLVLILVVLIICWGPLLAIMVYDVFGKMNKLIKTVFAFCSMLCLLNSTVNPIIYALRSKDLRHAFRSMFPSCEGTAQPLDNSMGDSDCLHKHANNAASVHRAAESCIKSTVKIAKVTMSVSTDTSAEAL

The assay addresses T1, cannabinoid CB1 (Homo sapiens, UniProt P21554).
T1 construct: purchased
Put plainly: Competition binding assay for cannabinoid CB1 affinity (3H-CP55,940 displacement). The conditions noted are these: membranes from cells expressing the receptor, 0.5 nM 3H-CP55,940; Ki by Cheng-Prusoff; read-out: Ki values as measured in the above assay. The method, then: Non-specific binding was defined in the presence of 10 μM CP55,940. For saturation studies, concentrations of ^3H—CP55,940 ranging from 0.1-5 nM were incubated with membranes in the presence and absence of 10 μM CP55,940. Assays were terminated after incubation for 1½ hours by rapid filtration onto 0.3% polyethylenamine treated GF/C filterplates using a BRANDEL cell harvester. The plates were dried and MICROSCINT scintillation cocktail was added, after which the bound radioactivity was quantified using a TOPCOUNT scintillation counter.
The dissociation constant (Kd) of ^3H—CP55,940 at the CB1 and CB2 receptor were determined by plotting specific binding at each concentration of radioligand, and analysis by non-linear regression. For competition studies, the concentration of each drug that inhibited 50 percent of ^3H—CP55,940 binding (IC50) was determined by non-linear regression analysis of the radioligand displacement curves. Affinity constants (K) were calculated using the equation derived by Cheng and Prusoff (1973), defined as: IC50/1+[conc. ligand/Kd].
For the compound `NCCC1CN(c2ccc(Cl)cc2)C(c2ccc(Cl)cc2Cl)CO1` (stereo not shown) [Example 5], the negative logarithm of the Ki (pKi) was at least 6.10.
The value for `Fc1ccc(CC2CN(c3ccc(Cl)cc3)C(c3ccc(Cl)cc3Cl)CO2)cc1F` (stereo not shown) [Example 1] was at least 7.00.
With `O=S(=O)(NCCC1CN(c2ccc(Cl)cc2)C(c2ccc(Cl)cc2Cl)CO1)c1cccnc1` (stereo not shown) [Example 6] the figure was at least 7.60.
With `CC(C)(C)OC(=O)CC1OCC(c2ccc(Cl)cc2Cl)N(c2ccc(Cl)cc2)C1=O` (stereo not shown) [Example 2] the figure was at least 6.10.

Usually pKi stands for the negative decadic logarithm of the Ki, by convention in mol/L.

The values are drawn from patent US20100197564A1, “DIARYL MORPHOLINES AS CB1 MODULATORS” (Schering Corporation, priority 2007, published 2010).
